# Paper PMC9928118, “Funneling modulatory peptide design with generative models: Discovery and characterization of disruptors of calcineurin protein-protein interactions” (PLOS Computational Biology, 2023)
# Tested on: GST-tagged Cn
# Experiment: PEPperPRINT peptide microarray binding assay with GST-tagged Cn
# Procedure, shortened: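 Qualitative binding: peptides printed on a PEPperPRINT microarray were incubated overnight at 4 °C with 1 mg/ml GST-tagged Cn, then detected with Alexa-Fluor 647 anti-GST antibody. Log fluorescence was baseline-corrected, averaged over duplicate spots, Z-normalized and averaged across five repeats.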
# [1] = GST-tagged Cn, max over the chip locations
# [2] = GST-tagged Cn, mean over the chip locations
# [3] = GST-tagged Cn, max over the spots on the chip (two locations)
# [4] = GST-tagged Cn, mean over the spots on the chip (two locations)
# [5] = max over the chip locations listed for the peptide (two spots)
# [6] = mean over the chip locations listed for the peptide (two spots)
# [7] = max over the spots listed under Location on chip
# [8] = mean over the spots listed under Location on chip
# [9] = GST-tagged Cn, max over the spots named in Location on chip
# [10] = GST-tagged Cn, mean over the spots named in Location on chip
# [11] = GST-tagged Cn, max over the chip spots listed under Location on chip
# [12] = GST-tagged Cn, mean over the chip spots listed under Location on chip
sequence,measurement,setting,value
FSGNQPAIVVHTCEDP [SeqRBM_2445],Chip Fluorescence (max),[1],0.03592
same,Chip Fluorescence (mean),[2],-0.8656
KKMSPPCISVDPPDEL [SeqCACNA1H_Nothobranchius_rachovii],Chip Fluorescence (max),[3],1.26
same,Chip Fluorescence (mean),[4],-0.004401
GSDDCPNVIVHIPHED [SeqRBM_9050],Chip Fluorescence (max),[5],5.16
same,Chip Fluorescence (mean),[6],0.1112
TFWSNPQYFVTLLESD [SeqRBM_6656],Chip Fluorescence (max),[7],3.032
same,Chip Fluorescence (mean),[8],1.049
APSSWPSIVVSPPELN [SeqRBM_1086],Chip Fluorescence (max),[9],1.655
same,Chip Fluorescence (mean),[10],-0.3843
TFWTNPQYRITVTDAD [SeqRBMlowT_620],Chip Fluorescence (max),[7],2.815
same,Chip Fluorescence (mean),[8],0.3496
LNLKIPIVLLNIISAI [SeqRBM_9387],Chip Fluorescence (max),[9],1.375
same,Chip Fluorescence (mean),[10],0.2818
TFWTNPQIKLSLTEKD [SeqCAPN11_Camelus_ferus],Chip Fluorescence (max),[7],3.072
same,Chip Fluorescence (mean),[8],1.377
RTPGTFPLTLKGHKKQ [SeqRBMlowT_6382],Chip Fluorescence (max),[9],1.729
same,Chip Fluorescence (mean),[10],0.4598
SLKLWMLLGIEAFTLS [SeqRBM_4562],Chip Fluorescence (max),[3],1.02
same,Chip Fluorescence (mean),[4],0.3817
TFWTNPQYRIKLTEPD [SeqRBMlowT_234],Chip Fluorescence (max),[11],0.5195
same,Chip Fluorescence (mean),[12],-0.7647
LMVSPPEITISPAELH [SeqRBM_5585],Chip Fluorescence (max),[7],3.353
same,Chip Fluorescence (mean),[8],0.761
KSSSSPSASINVPQSN [SeqRBM_1871],Chip Fluorescence (max),[5],3.993
same,Chip Fluorescence (mean),[6],1.569
GDPITVTFSFKQQSIR [Seqshuffled_9986],Chip Fluorescence (max),[5],4.236
same,Chip Fluorescence (mean),[6],-0.3717
TFWINPQIVITLADED [SeqRBMlowT_2933],Chip Fluorescence (max),[7],2.77
same,Chip Fluorescence (mean),[8],0.3523
PKEDLPVITIDPASPQ [SeqNHE1_Pan_troglodytes],Chip Fluorescence (max),[11],0.9606
same,Chip Fluorescence (mean),[12],-0.5019
RLFSVCEQEEEIERAP [Seqshuffled_9643],Chip Fluorescence (max),[5],4.044
same,Chip Fluorescence (mean),[6],1.1677
HVSSSPDITLTPTQHR [SeqRBMlowT_782],Chip Fluorescence (max),[1],-0.2367
same,Chip Fluorescence (mean),[2],-0.7632
RTYINPFMKFTIWGTQ [SeqRBM_6386],Chip Fluorescence (max),[9],1.359
same,Chip Fluorescence (mean),[10],-0.5299
ADGAGVGIVITVTEAE [SeqRBMlowT_1411],Chip Fluorescence (max),[3],1.31
same,Chip Fluorescence (mean),[4],-0.2973
DRMAQDSMGWCRECLM [Seqrandom_9951],Chip Fluorescence (max),[5],3.639
same,Chip Fluorescence (mean),[6],1.593
PKMAPPAINIDFAPTN [SeqRBMlowT_1805],Chip Fluorescence (max),[7],2.636
same,Chip Fluorescence (mean),[8],-0.01431
QKRYGETFPPVKTGSD [Seqshuffled_1489],Chip Fluorescence (max),[3],1.242
same,Chip Fluorescence (mean),[4],-0.2303
FNSWRQVPLWSPEFHT [SeqRBM_9832],Chip Fluorescence (max),[3],1.192
same,Chip Fluorescence (mean),[4],0.531
STSSLPTFSFSSPPPT [SeqRBMlowT_3483],Chip Fluorescence (max),[1],-1.1866
same,Chip Fluorescence (mean),[2],-2.157
KVTTLKSVSPAIAAPE [Seqshuffled_1741],Chip Fluorescence (max),[11],0.7857
same,Chip Fluorescence (mean),[12],-0.5033
ESFGNELIPFNASKSY [Seqshuffled_9947],Chip Fluorescence (max),[1],-0.1304
same,Chip Fluorescence (mean),[2],-0.5132
ADEANPEITITPPELP [SeqRBMlowT_372],Chip Fluorescence (max),[5],6.273
same,Chip Fluorescence (mean),[6],1.325
GAPITPHKQGNEKAVS [SeqRBM_6919],Chip Fluorescence (max),[11],0.7143
same,Chip Fluorescence (mean),[12],-1.223
KSKLIPKLSFQSPVHH [SeqRBMlowT_3425],Chip Fluorescence (max),[1],0.2205
same,Chip Fluorescence (mean),[2],-0.7902
LCVTGRERIAEDWLRP [Seqrandom_9974],Chip Fluorescence (max),[3],1.2052
same,Chip Fluorescence (mean),[4],0.7765
TFWTNPQYRLWIVSVD [SeqRBM_2615],Chip Fluorescence (max),[3],1.0899
same,Chip Fluorescence (mean),[4],-0.4347
SNLACNDRHPNNEDAK [Seqshuffled_9450],Chip Fluorescence (max),[5],5.333
same,Chip Fluorescence (mean),[6],1.133
PSEDQPGIVVHVCEED [SeqRBMlowT_124],Chip Fluorescence (max),[5],4.395
same,Chip Fluorescence (mean),[6],0.1564
TFHTNPQYRIKLEEPD [SeqRBMlowT_4495],Chip Fluorescence (max),[5],3.4958
same,Chip Fluorescence (mean),[6],1.049
AYPGTYYGQDGSHKKQ [SeqRBM_820],Chip Fluorescence (max),[7],2.763
same,Chip Fluorescence (mean),[8],0.3608
TFWSNPQFRITLEDPD [SeqRBMlowT_45],Chip Fluorescence (max),[5],4.041
same,Chip Fluorescence (mean),[6],0.007175
TFWTNPQYRITLEEPD [SeqRBMlowT_212],Chip Fluorescence (max),[3],1.104
same,Chip Fluorescence (mean),[4],0.3317
TFWTNPQFRIHLEEED [SeqRBMlowT_251],Chip Fluorescence (max),[7],2.844
same,Chip Fluorescence (mean),[8],1.205
STSSLPTFSFSSPAPS [SeqRBMlowT_801],Chip Fluorescence (max),[1],-0.2979
same,Chip Fluorescence (mean),[2],-1.46
KAYMSPFMSFIDGGRR [SeqRBMlowT_6614],Chip Fluorescence (max),[7],2.798
same,Chip Fluorescence (mean),[8],1.173
MRRERSNRAMFKVNQH [Seqrandom_9977],Chip Fluorescence (max),[9],1.743
same,Chip Fluorescence (mean),[10],-0.1357
GASMCPAMSWQDCGQR [SeqSFB3_Iconisemion_striatum],Chip Fluorescence (max),[9],1.507
same,Chip Fluorescence (mean),[10],0.3571
TFWTNPQYRITLDSSD [SeqRBMlowT_972],Chip Fluorescence (max),[9],1.828
same,Chip Fluorescence (mean),[10],-0.3429
PALESPRIEITSYLGM [SeqNFATC1_Canis_lupus],Chip Fluorescence (max),[9],1.5159
same,Chip Fluorescence (mean),[10],-0.48
FAKHWPKLSDVSPVAH [SeqRBM_8299],Chip Fluorescence (max),[1],0.2862
same,Chip Fluorescence (mean),[2],-1.095
LSLKIPEISIQDMTAQ [SeqFLNA_Macaca_mulatta],Chip Fluorescence (max),[3],1.124
same,Chip Fluorescence (mean),[4],-0.12
RAYINPFMQFIDGGRR [SeqRBMlowT_1520],Chip Fluorescence (max),[9],1.802
same,Chip Fluorescence (mean),[10],-0.3387
ATSFVPQLASTLFSLW [SeqRBM_1383],Chip Fluorescence (max),[11],0.6271
same,Chip Fluorescence (mean),[12],-0.8819
SPSNPPEIIISSREDN [SeqKCNN2_Mus_musculus],Chip Fluorescence (max),[7],3.195
same,Chip Fluorescence (mean),[8],0.7018
ASSSAPEIVVSKPEHN [SeqKCNN2_Pan_troglodytes],Chip Fluorescence (max),[11],0.501
same,Chip Fluorescence (mean),[12],-0.7597
SYLPIIQVRMTDTGEY [SeqRBM_6285],Chip Fluorescence (max),[3],1.118
same,Chip Fluorescence (mean),[4],0.3431
SAASFRIKQIEFMVSA [Seqshuffled_4815],Chip Fluorescence (max),[11],0.7621
same,Chip Fluorescence (mean),[12],-0.8277
KAYMNPFMQFIDGGRR [SeqRBMlowT_560],Chip Fluorescence (max),[5],4.3098
same,Chip Fluorescence (mean),[6],0.3269
YFFDRDTGAGKIEQEH [Seqrandom_9991],Chip Fluorescence (max),[7],2.629
same,Chip Fluorescence (mean),[8],-0.3443
LSARYPEIVVSVPEHN [SeqRBM_9361],Chip Fluorescence (max),[11],0.7337
same,Chip Fluorescence (mean),[12],-0.349
RNPGTAPLTLKGHKKQ [SeqRBMlowT_6124],Chip Fluorescence (max),[7],2.7668
same,Chip Fluorescence (mean),[8],0.4787
IKLIIWNHNISNHGTY [SeqRBM_5872],Chip Fluorescence (max),[5],8.925
same,Chip Fluorescence (mean),[6],1.809
GQSISRNIRPNTFSPL [Seqshuffled_9432],Chip Fluorescence (max),[1],0.04391
same,Chip Fluorescence (mean),[2],-1.286
TFWTNPQYRITLEDED [SeqRBMlowT_1185],Chip Fluorescence (max),[5],4.604
same,Chip Fluorescence (mean),[6],0.2377
THVEKVRFLIQPAGHP [Seqshuffled_9690],Chip Fluorescence (max),[11],0.887
same,Chip Fluorescence (mean),[12],-0.1564
TFWTNPQYRLKLEEVD [SeqRBMlowT_1143],Chip Fluorescence (max),[3],1.092
same,Chip Fluorescence (mean),[4],0.4965
STSSLPTFSFSSPKPQ [SeqRBMlowT_8920],Chip Fluorescence (max),[3],1.216
same,Chip Fluorescence (mean),[4],-1.018
HVSSSVDIVITPTQHR [SeqRBMlowT_8839],Chip Fluorescence (max),[9],1.415
same,Chip Fluorescence (mean),[10],0.2946
